Molecules are shown by their SMILES.

The first experiment deals with MH60. In words: Compound was tested for inhibition of interleukin-6-dependent MH60 cell growth. The class given is functional, cell-based. Particulars: Mus musculus.
In general, IC50 refers to the concentration that inhibits the measured activity by half. For the compound `CC1=CC(=O)[C@@H]2[C@@H](C1)[C@]1(C)CC3=[N+]4C[C@H]5C[C@H](C)C[C@]4(CC[C@@]3(C)[C@@](C)(CC(=O)O)[C@H]1C(=O)[C@@H]2C)O5`, half-maximal inhibition (IC50) was put at 26 µM. `C[C@H]1C[C@@H]2C[N+]3=C4CCC[C@](C)(CC(=O)O)[C@]4(C)CC[C@@]3(C1)O2` came in with an IC50 of roughly 70 µM. `CCCCC1=C(C)C(=O)[C@](C)(CN2c3ccccc3[C@]3(O)CCOC23)C1=O` (stereo partly specified) [MADINDOLINE A] had a concentration for half-maximal inhibition (IC50) of 8 µM. This counts as single-digit micromolar. In turn, `CC1=CC(=O)[C@H]2CC(=O)[C@H]3[C@@](C)(CC4=[N+]5C[C@H]6C[C@H](C)C[C@]5(CC[C@@]4(C)[C@@]3(C)CC(=O)O)O6)[C@@H]2C1` showed a concentration for half-maximal inhibition (IC50) of 13 µM.

For the next experiment, the system named is MH60. Nature of the experiment: Compound was tested for inhibition of interleukin-6-dependent MH60 cell growth; Very weak inhibition. The class given is functional, cell-based.
Conditions: not given
As to `Cc1cc(O)c2c(c1)[C@]1(C)CC(=O)[C@@]3(C)CCCC[C@@]3(C)[C@@]1(C)C(=O)[C@@H]2C`, the concentration for half-maximal inhibition (IC50) result is reported as “Very weak inhibition”. As for `C[C@H]1C[C@@H]2CN3C45CCC[C@](C)(CC(=O)O4)[C@]5(C)CC[C@@]3(C1)O2`, the IC50 result is “Very weak inhibition”.

Source of the values: ChEMBL document CHEMBL1146748, “Synthesis and preliminary biological evaluation of truncated zoanthenol analogues” (Bioorg Med Chem Lett, 2004).
